The values that follow come from ChEMBL document CHEMBL1127118 (Bioorg Med Chem Lett, 1993).

pKi: −log10 of the molar value. Where “and” joins values, the source holds several entries; their conditions need not be identical. Identical values can stand only once. Bounds are passed on as bounds.

Assay [1] has as its target T1, 5-hydroxytryptamine receptor 1A (Rattus norvegicus, UniProt P19327).
T1 sequence (P19327 whole entry): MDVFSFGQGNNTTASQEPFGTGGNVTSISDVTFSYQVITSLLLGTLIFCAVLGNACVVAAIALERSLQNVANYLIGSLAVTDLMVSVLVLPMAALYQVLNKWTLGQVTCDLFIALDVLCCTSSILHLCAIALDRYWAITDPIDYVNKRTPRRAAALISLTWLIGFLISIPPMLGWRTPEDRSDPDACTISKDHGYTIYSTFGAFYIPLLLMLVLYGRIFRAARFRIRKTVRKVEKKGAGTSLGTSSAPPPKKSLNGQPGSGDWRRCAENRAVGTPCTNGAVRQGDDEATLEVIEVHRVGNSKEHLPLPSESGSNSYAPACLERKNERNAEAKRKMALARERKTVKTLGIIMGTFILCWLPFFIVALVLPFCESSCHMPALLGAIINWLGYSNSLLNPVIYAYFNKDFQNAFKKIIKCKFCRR
Description: Displacement of [3H]8-OH-DPAT from rat hippocampal 5-hydroxytryptamine 1A receptor. Type of assay: tissue-based, Hippocampus. A general note: In a radioligand displacement assay an active substance lowers the binding of a labelled ligand.

For assay [2], the target named is 5-hydroxytryptamine receptor 1B (Rattus norvegicus, UniProt P28564). Nature of the assay: Binding affinity against 5-hydroxytryptamine 1B receptor in rat striatal membranes using [3H]5-HT as radioligand. Type of assay: cell membranes, Striatum, Membrane.
The target of assay [3] is T1, 5-hydroxytryptamine receptor 1A. Description: The compound was evaluated for binding affinity against 5-hydroxytryptamine 1A receptor in rat hippocampal membranes using [3H]8-OH-DPAT as radioligand in the presence of 1 mM of MnCl2. Type of assay: cell membranes, Hippocampus.
For assay [4] the target is unchanged. Nature of the assay: The compound was evaluated for binding affinity against 5-hydroxytryptamine 1A receptor in rat hippocampal membranes using [3H]8-OH-DPAT as radioligand in the presence of 3*10e-5 M GTP gamma S. Type of assay: cell membranes, Hippocampus.

Sequence of 5-hydroxytryptamine receptor 1B (P28564 whole entry): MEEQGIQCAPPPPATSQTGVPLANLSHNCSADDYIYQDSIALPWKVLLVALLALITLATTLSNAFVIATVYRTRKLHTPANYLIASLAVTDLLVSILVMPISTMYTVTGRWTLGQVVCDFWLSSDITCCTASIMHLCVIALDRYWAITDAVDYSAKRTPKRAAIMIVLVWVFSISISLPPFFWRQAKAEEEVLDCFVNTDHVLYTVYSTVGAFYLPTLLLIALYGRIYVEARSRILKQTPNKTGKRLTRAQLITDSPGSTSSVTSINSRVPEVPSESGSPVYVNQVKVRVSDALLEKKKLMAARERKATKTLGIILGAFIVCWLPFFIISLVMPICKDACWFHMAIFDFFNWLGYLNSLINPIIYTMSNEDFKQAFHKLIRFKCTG

Consider `CCCN(CCC)C1CCc2c(C)ccc(OC)c2C1` (stereo not drawn), for which the results for the pKi in assay [1] and in assay [2] were 6.94 and 6.24, respectively.
In the case of `COc1ccc(C)c2c1CC(N)CC2` (stereo not drawn), the pKi (in general, −log10 of the Ki, conventionally taken in molar units) is 6.36 in assay [1] and less than 5.00 in assay [2].
The like results for `COc1cc2ccccc2c2c1CC(N)CC2` (stereo not drawn) were, in that order, 5.97 and 7.12.
On the same counts, the results for `COc1c2c(cc3ccccc13)CCC(N)C2` (stereo not drawn) are 5.60 and 7.64.
Take `CCCN(CCC)C1CCc2cccc(OC)c2C1` (stereo not drawn): the values for the negative-log Ki (pKi) in assay [1] and in assay [2] were 8.52 and 5.40, respectively.
On the same counts, the results for `COc1cccc2c1CC(N)CC2` (stereo not drawn) are 6.80 and 6.04.
The like results for `CCCN(CCC)C1CCc2c(c(OC)cc3ccccc23)C1` (stereo not drawn) were, in that order, 5.89 and 5.20.
In the case of `CCCN(CCC)C1CCc2c(C)ccc(O)c2C1` (stereo not drawn), the pKi is 7.74 and 7.51 in assay [1]; 7.33 in assay [3]; 7.09 in assay [4]; less than 5.00 in assay [2].
As for `CCCN(CCC)C1CCc2cc3ccccc3c(O)c2C1` (stereo not drawn), the negative logarithm of the Ki (pKi) in assay [1] was 5.60; in assay [2] it was less than 6.00.
For `CC(C)(C)NCC(O)COc1cccc2c1SCCC2` (stereo not drawn) [TERTATOLOL], the pKi in assay [1] was 7.74; in assay [3], 8.11; in assay [4] it was 7.42.
